Key:
[1] = in vivo; cited from earlier work
[2] = In vitro model: pore blocking of Millipore filter (IVMI); details: 0.185 molar aluminum solution; pH 10 buffer; 0.25% NaCl; 100 mm H2O; inverse relation to % sweat reduction
Excerpt: The apparatus and test protocol are based on method described by Reller and Leudders (Reller, H. H. and Leudders, W. L., Advances in Modern Toxicology, 4: 1-59 (1977)) and EP 0586235 B1 disclosures of which are incorporated herein by reference. Reller and Leudders described a millipore system which they used to measure the obstruction caused by the neutralization of various metal salts. They then compared their in vitro findings with those obtained for antiperspirant efficacy of the salts which had been tested in humans and found a reasonable correlation. A modified version of the apparatus and protocol described in […] were developed and used to determine the relative in vitro efficacy of antiperspirant actives. The system is shown schematically in FIG. 2 of the accompanying drawings. The system consists of four major components, namely the pressure control unit 1, the sweat reservoir II, the cell III and the measuring system IV.
The pressure control unit I consisted of a standard nitrogen gas cylinder 1 equipped with a pressure regulator 2 and connected to an on/off isolation valve 3 and pressure relief safety valve 4. The on/off valve 3 isolates the nitrogen cylinder 1 from the rest of the system. The majority of connections were made using ¼″ stainless steel tubing and swage lock fittings. […]

[Cl][Al]([Cl])[Cl] [aluminum chloride solution, aluminum chloride]
antiperspirancy among the various aluminum salts [1]: highest antiperspirancy | IVMI (In Vitro Model Index) [2]: lowest

Source: US6902724B1, “Enhanced efficacy basic aluminum halides, antiperspirant active compositions and methods for making” (Reheis, Inc., priority 2004, dated 2005)
